The test system of one data set is NZB/W F1 hybrid mice. As to the kind of experiment: Murine lupus nephritis. The data set is classed as in vivo. As to conditions: for mortality / survival: up to the end of experiments at 32 weeks, Hybri 20 mg/kg ip days 0, 4, 14, 28, 56, 84, CYP 50 mg/kg ip every 10 days, versus PBS. An excerpt:
NZB/W F1 hybrid mice spontaneously develop a disease closely resembling human systemic lupus erythematous (SLE) with severe renal involvement, which is the main cause of animal mortality. In fact, this model, with a well-characterized evolution of renal disease, has been widely used to study the therapeutic potential of several new agents for SLE, as previously reported (Ripoll et al., “CD40 gene silencing reduces the progression of experimental lupus nephritis modulating local milieu and systemic mechanisms”, PLoS One, 2013, vol. 8(6)).
From 20 weeks of age, and close to a potential therapeutic schedule in humans, mice (n=9) received Hybri intraperitoneally (ip) at 20 mg/kg on days 0, 4, 14, 28, 56 and 84; or CYP (n=8) ip. at 50 mg/kg every 10 days; or 200 μl PBS ip. twice a week (n=8).

Data set [1] relates to CD3+ T cell proliferation. As to the kind of experiment: Mixed lymphocyte reaction (MLR) in vitro proliferation assay. It is filed as cell-based, human. The following applies: for decrease of CD3+ cells proliferation: 6 days, as compared to spontaneous proliferation without immunosuppressive agents (MLR), two responder subjects. How it is done: Mixed Lymphocyte reactions (MLR) were performed in the presence or absence of different immunosuppressive drugs to test their inhibitory effect on T cell proliferation, following conventional methodology (Levitsky J, et al., “Allospecific regulatory effects of sirolimus and tacrolimus in the human mixed lymphocyte reaction”, Transplantation, 2011, vol. 91(2), pp. 199-206).
Briefly, peripheral blood mononuclear cells (PBMC) from healthy controls were used as responder cells. CD3^+-depleted splenocytes extracted from deceased donors and mature dendritic cells (DCs) were extracted with CD2 positive selection cocktail (Stem Cell Technologies, France) following manufacturer's instructions and they were used as stimulators in the assay. PBMC from peripheral blood samples and splenocytes were isolated by standard Ficoll density gradient centrifugation (Bargalló M E. et al., “Utility of Systematic Isolation of immune cell subsets from HIV-infected individuals for miRNA profiling”, J Immunol Methods, 2017, vol. 442, pp. 12-19). In order to obtain mature DCs, monocytes were isolated from PBMC by negative selection with Human monocyte enrichment kit (Stem Cell Technologies, France) following manufacturer's instructions, cultured for 6 days with complete Ex-vivo medium supplemented with 2% of human serum (Sigma Aldrich), GMSF (15 ng/ml; R&D) and IL-4 (10 ng/ml; Sigma Aldrich) (37° C. 5% CO2), and stimulated with LPS (1 μg/ml; Sigma Aldrich) for 24 h.
First, PBMC were stained with carboxyfluorescein succinimidyl ester (CFSE) (Lloberas N, et al., “Dendritic cells phenotype fitting under hypoxia or lipopolysaccharide; adenosine 5′-triphosphate-binding cassette transporters far beyond an efflux pump”, Clin Exp Immunol., 2013, vol. 172(3), pp. 444-54). […] At day 6, cells were harvested and stained for CD3-APC and CD4-PE (BD Bioscience, San Jose, Calif., USA) 20 minutes in the dark following manufacturer's instructions, and T-cell proliferation were analyzed by flow cytometry (BD FACS CANTO 11, San Jose, Calif., USA) using Facs Diva software and following manufacturer's instructions.
The in vitro proliferation assay was performed with high HLA-mismatch combination between 2 stimulator DCs and two corresponding responder subjects ([…], S2) T cells.

Data set [2] concerns Lewis rats transplanted with a single kidney from a Wistar donor rat. As to the kind of experiment: Rat renal allotransplantation (life-sustaining renal transplantation model). The following applies: 500 μg intraperitoneally 2 hours before transplantation, then daily for 6 days, followed for 3 weeks, versus non-treated group, p<0.05. It is filed as in vivo. The source says:
A model of life-sustaining renal transplantation previously described (De Ramon et al., “CD154-CD40 T-cell co-stimulation pathway is a key mechanism in kidney ischemia-reperfusion injury”, Kidney Int., 2015, vol. 88(3), pp. 538-49) was used to test the therapeutic effects of the fusion protein. It is known that in experimental renal transplantation with highly alloreactive donor-recipient combination, severe acute rejection results in high recipients' mortality.
Briefly, Lewis rats were bi-nephrectomized and subsequently transplanted with a single kidney from a Wistar donor rat. […] In the control group, recipient Lewis rats received no treatment. Transplanted rats were followed for 3 weeks.

Data set [3] has as its system Wistar rats with 40 minutes of bilateral renal ischemia.
Experimental: Rats were sham operated or suffered from renal warm ischemia and were treated with the fusion protein of the invention of sequence SEQ ID NO: 6 (Hybri) at 20 mg/kg ip. 24 hours before renal ischemia; and in the control ischemic group rats received PBS.

Take `O=P1(N(CCCl)CCCl)NCCCO1` (stereo not shown) [CYP, cyclophosphamide, reference compound]: the “albuminuria (albuminuria/creatininuria ratio)” value with NZB/W F1 hybrid mice (at 3 months of therapy) is “reducing albuminuria”. The mortality / survival result in the data set on NZB/W F1 hybrid mice was “no mortality”.

In the case of “Hybri: fusion protein of human PDL2 extracellular domain, (GGGGS)3 linker, human CTLA4 extracellular domain, Fc of human IgG, poly-histidine tag; SEQ ID NO: 6”, in data set [1] (10 μg/mL and 20 μg/mL, compared with tacrolimus (10 nM), FIG. 5), the “inhibition of mature CD3+ T cell proliferation (in words)” value was “strongly inhibit”. Besides, the “decrease of CD3+ cells proliferation” value is reported as 97%-99% in data set [1] (10 μg/mL) and 94%-99% in data set [1] (20 μg/mL). The “reduction in T cell proliferation (immunosuppressive effect, FIG. 5)” value in data set [1] (summary statement of FIG. 5) is given as “nearly complete”. Moreover, the survival entry in data set [2] is given as “significantly higher survival”; in data set [2] (listed as fusion polypeptide), “strongly improved the survival”. Further, in the data set with NZB/W F1 hybrid mice (FIG. 8B), the “anti-DNA antibodies in serum” value is “effectively reduced anti-DNA antibodies to similar levels than CYP”. In addition, in the data set on NZB/W F1 hybrid mice (mouse, in vivo), the “albuminuria (albuminuria/creatininuria ratio)” value was “as efficient as CYP in reducing albuminuria”. For the same compound, the values for the mortality / survival result in the data set on NZB/W F1 hybrid mice and in the data set on NZB/W F1 hybrid mice (listed as fusion polypeptide) were “no mortality” and “strongly improved the survival”, respectively. In addition, in data set [3] (20 mg/kg ip. 24 hours before renal ischemia), the “preservation of renal structure” value was “better preservation of renal structure”. Also, in data set [3] (20 mg/kg ip. 24 hours before renal ischemia, 24 hours after warm ischemia, versus PBS, p=0.0038), the “renal function (serum creatinine levels)” value is reported as “significantly improved renal function”. In data set [3] (compared to non-treated ischemic kidneys), the “T cells with regulatory phenotype (Tregs) per high power field in renal parenchyma” value is recorded as “increased”. Also, the “renal failure in sham operated rats” value in data set [3] (rat, in vivo) was “did not develop renal failure”.

Values taken from patent publication US20220089679A1, “FUSION PROTEIN WITH IMMUNOSUPPRESSIVE ACTIVITY” (FUNDACIÓ INSTITUT D'INVESTIGACIÓ BIOMÈDICA DE BELL, priority 2019, published 2022).
